In patent publication US4244954A, “Acridine compounds and methods of combatting viruses with them” (Sterling Drug Inc., priority 1978, dated 1981):
Read-outs that look alike come from different tables or passages of the source.

Key:
T. mentagrophytes = test: in vitro antimicrobial activity, serial dilution, T. mentagrophytes; type: cell-based; details: Trichophyton mentagrophytes, read-out: MIC, fungistatic activity against T. mentagrophytes
Description: (§1) The antimicrobial activity of the compounds was determined in vitro by the conventional serial dilution technique against several species of bacteria and fungi, e.g. S. aureus, S. pyogenes, C. albicans, T. mentagrophytes.

C. albicans = test: in vitro antimicrobial activity, serial dilution, C. albicans; type: cell-based; details: Candida albicans, read-out: MIC, fungistatic activity against C. albicans
Description: as §1

S. pyogenes = test: in vitro antimicrobial activity, serial dilution, S. pyogenes; type: cell-based; details: Streptococcus pyogenes, read-out: minimum inhibitory concentration (MIC), bacteriostatic activity against S. pyogenes
Description: as §1

Trypanosoma brucei [1] = type: in vivo, mice; details: for curative effect against T. brucei infection: mice, oral
Description: (§2) Trypanosomacidal activity was determined against Trypanosoma brucei in mice. In a curative test medication was given (orally or parenterally) as a single dose or daily in equally subdivided doses eight hours apart for four days beginning 72 hours after intraperitoneal infection. In a prophylactic-suppressive test the total daily medication was given as a single treatment one day prior to infection, and thereafter for three consecutive days the total daily medications were administered as equally subdivided doses eight hours apart. The infection was uniformly fatal in five to six days in the absence of therapy. Chemotherapeutic effectiveness was based on extension of survival time. Tests were considered terminated 28 days after infection.

[2] = tested on: herpes simplex virus type 2; test: in vitro antiviral activity, serial dilution, herpes simplex virus type 2; type: cell-based; details: Human alphaherpesvirus 2
Description: (§3) Antiviral activity was determined in vitro by the conventional serial dilution technique against selected virus species such as herpes simplex virus types 1 and 2. In vivo antiviral activity was determined against herpes virus in the mouse genital model and the guinea pig skin infection model.

S. aureus = test: in vitro antimicrobial activity, serial dilution, S. aureus; type: cell-based; details: Staphylococcus aureus, read-out: minimum inhibitory concentration (MIC), bacteriostatic activity against S. aureus
Description: as §1

herpes simplex type 2 = test: in vivo antiviral activity, mouse genital model; design: species or system mice
Description: as §3

[3] = tested on: herpes simplex virus type 1; test: in vivo antiviral activity, guinea pig skin infection model; details: after 48 hours of topical treatment
Description: as §3

[4] = tested on: influenza virus A2 /Jap 170; test: influenza virus titers in ferret nasal washings; type: in vivo; details: 100-200 mg/kg/day
[5] = tested on: six herpes simplex strains; test: plaque count reduction, six herpes simplex strains; type: cell-based, herpes simplex virus; details: at 4-10 mg./ml.
herpes simplex virus 1 = test: in vitro antiviral activity, serial dilution, herpes simplex virus type 1; type: cell-based; details: Human alphaherpesvirus 1, read-out: concentration at which active against herpes simplex virus 1
Description: as §3

Endameba criceti = test: amebicidal activity in infected hamsters; type: in vivo; details: Mesocricetus auratus, 72 h, oral, read-out: dose at which active orally against Endameba criceti in hamsters
Description: Amebicidal activity was determined by oral administration of the test compound orally to hamsters infected with Endameba criceti and the amount of drug necessary to clear the animals of infection in three days was determined.

Trypanosoma brucei [6] = test: prophylactic-suppressive test against Trypanosoma brucei infection in mice; type: in vivo; details: oral, 50 mg per kg per day
Description: as §2

[7] = concentration at which active, read-out: antiviral activity against herpes type 2
[8] = read-out: concentration at which active in vitro against herpes simplex virus type 2
[9] = in vitro, read-out: concentration at which active against herpes simplex virus 2

CN(C)CCOc1ccc2c(c1)c(Cc1ccccc1)c1ccc(Cl)cc1[n+]2C.Cl.[Cl-] [Example 86, 2-(2-Dimethylaminoethoxy)-6-chloro-10-methyl-9-benzylacridinium chloride hydrochloride] was tested, and the MIC (T. mentagrophytes) was 31.3 µg/mL, the MIC (C. albicans) was 15.6 µg/mL and the MIC (S. pyogenes) was 7.8 µg/mL. The “curative effect against T. brucei infection” value (Trypanosoma brucei [1]; 50 mg/kg/day×4) was “ineffective”, the “toxicity to the animals in the oral curative test” value (Trypanosoma brucei [1]; mouse, in vivo, po, 200 mg/kg/day) was “toxic to the animals” and the minimal effective concentration [2, 7] was 12 µg/mL.

With COc1ccc2c(c1)c(Cc1ccccc1)c1ccc(OCCN(C)C)cc1[n+]2C.Cl.[Cl-] [Example 87, 3-(2-Dimethylaminoethoxy)-7-methoxy-10-methyl-9-benzylacridinium chloride hydrochloride] the “effect against T. brucei” value (Trypanosoma brucei [1]; 200 mg/kg/day×4, route and test type not given) was “ineffective” and the minimal effective concentration [2, 8] was 12 µg/mL.

In the case of CN(C)CCOc1ccc2c(Cc3ccccc3)c3ccccc3[n+](C)c2c1.Cl.[Cl-] [Example 81, 3-(2-Dimethylaminoethoxy)-10-methyl-9-benzylacridinium chloride hydrochloride], the MIC (S. aureus; in vitro) is reported as 31.3 µg/mL, the MIC (S. pyogenes) is reported as 31.3 µg/mL and the “curative effect against T. brucei infection” value (Trypanosoma brucei [1]; 100 mg/kg/day×4) is reported as “completely effective”.

In the case of CN(C)CCOc1cccc2c1c(=O)c1ccccc1n2C [Example 27, 1-(2-Dimethylaminoethoxy)-10-methyl-9(10H)-acridinone], the “survival in mice with genital herpes simplex type 2 infection” value (herpes simplex type 2; concentrations ranging from 2.5 to 10%) is reported as 50-90%, the “reduction of virus titer of herpes simplex virus type 1 in guinea pig skin infection” value [3] is reported as “more than 99%” and the “reduction in influenza virus A2 /Jap 170 titers in ferret nasal washings” value [4] is reported as “significant reduction”. The “reduction of the plaque counts of six herpes simplex strains” value [5] was “at least 50%”, the minimal effective concentration (herpes simplex virus 1) was 6 µg/mL and the minimal effective concentration [2, 9] was 6 µg/mL.

With Cn1c2ccccc2c(=O)c2cc(OCCN3CCOCC3)ccc21 [Example 8, 2-[2-(4-Morpholinyl)ethoxy]-10-methyl-9(10H)-acridinone] the minimal effective concentration (herpes simplex virus 1) was 25 µg/mL and the minimal effective concentration [2, 9] was 25 µg/mL.

CN(C)CCCOc1ccc2c(Cc3ccccc3)c3ccccc3[n+](C)c2c1.Cl.[Cl-] [Example 82, 3-(3-Dimethylaminopropoxy)-10-methyl-9-benzylacridinium chloride hydrochloride] was tested, and the MIC (S. aureus; in vitro) was 31.3 µg/mL and the “curative effect against T. brucei infection” value (Trypanosoma brucei [1]; 100 mg/kg/day×4) was “completely effective”.

For CN(C)CCOc1ccc2c(c1)c(Cc1cccc(F)c1)c1ccccc1[n+]2C.Cl.[Cl-] [Example 84, 2-(2-Dimethylaminoethoxy)-10-methyl-9-(3-fluorobenzyl)acridinium chloride hydrochloride], the MIC (S. aureus; in vitro) was 15.6 µg/mL, the MIC (S. pyogenes) was 15.6 µg/mL and the “curative effect against T. brucei infection” value (Trypanosoma brucei [1]; 200 mg/kg/day×4) was “completely effective”.

In the case of Cn1c2ccccc2c(=O)c2cccc(OCCN3CCCCC3)c21 [Example 15, 4-[2-(1-Piperidyl)ethoxy]-10-methyl-9(10H)-acridinone], the minimal effective concentration [2, 9] is reported as 12 µg/mL.

Cn1c2ccccc2c(=O)c2cc(OCCCCN3CCCC3)ccc21 [Example 16, 2-[4-(1-Pyrrolidyl)butoxy]-10-methyl-9(10H)-acridinone] showed a minimal effective concentration (herpes simplex virus 1) of 6 µg/mL and a minimal effective concentration [2, 9] of 6 µg/mL.

For Cn1c2ccccc2c(=O)c2cc(OCCN3CCCCC3)ccc21 [Example 10, 2-[2-(1-Piperidyl)ethoxy]-10-methyl-9(10H)-acridinone], the minimal effective concentration (herpes simplex virus 1) was 6 µg/mL.

In the case of Cn1c2ccccc2c(=O)c2cccc(OCCN3CCCC3)c21 [Example 13, 4-[2-(1-Pyrrolidyl)ethoxy]-10-methyl-9(10H)-acridinone], the minimal effective concentration [2, 9] is reported as 12 µg/mL.

CN(C)CCOc1ccc2c(c1)c(=O)c1ccccc1n2C [Example 1, 2-(2-Dimethylaminoethoxy)-10-methyl-9(10H)-acridinone] showed a minimal effective concentration [2, 8] of 3 to 6 µg/mL.

In the case of COc1ccc(C2(O)c3ccccc3N(C)c3ccc(OCCN(C)C)cc32)cc1 (stereo not drawn) [Example 65, 2-(2-Dimethylaminoethoxy)-9,10-dihydro-9-(4-methoxyphenyl)-10-methyl-9-acridinol], the “curative effect against T. brucei infection” value (Trypanosoma brucei [1]; 200 mg/kg/day×4) is reported as “completely effective”.

With Cn1c2ccccc2c(=O)c2c(OCCN3CCCCC3)cccc21 [Example 33, 1-[2-(1-Piperidyl)ethoxy]-10-methyl-9(10H)-acridinone] the minimal effective concentration (herpes simplex virus 1) was 6 µg/mL.

With CN(C)CCOc1ccc2c(c1)c(Cc1ccc(Cl)cc1)c1ccccc1[n+]2C.Cl.[Cl-] [Example 83, 2-(2-Dimethylaminoethoxy)-10-methyl-9-(4-chlorobenzyl)acridinium chloride hydrochloride] the MIC (S. aureus; in vitro) was 7.8 µg/mL, the “curative effect against T. brucei infection” value (Trypanosoma brucei [1]; 200 mg/kg/day×4) was “ineffective” and the minimal effective concentration [2, 7] was 25 µg/mL.

CCN(CC)CCOc1ccc2c(c1)c(Cc1ccccc1)c1ccccc1[n+]2C.Cl.[Cl-] [Example 85, 2-(2-Diethylaminoethoxy)-10-methyl-9-benzylacridinium chloride hydrochloride] was tested, and the MIC (S. aureus; in vitro) was 31.3 µg/mL, the MIC (S. pyogenes) was 31.3 µg/mL and the “curative effect against T. brucei infection” value (Trypanosoma brucei [1]; 100 mg/kg/day×4) was “completely effective”.

With CN1C2CCCC1CC(Oc1cccc3c1c(=O)c1ccccc1n3C)C2 (stereo not drawn) [Example 34, exo-1-(9-Methylgranatanin-3-yloxy)-10-methyl-9(10H)-acridinone] the minimal effective concentration (herpes simplex virus 1) was 25 µg/mL and the minimal effective concentration [2, 9] was 25 µg/mL.

CN(C)CCOc1ccc2c(c1)c(-c1ccccc1)c1ccccc1[n+]2C.Cl.[Cl-] [Example 68, 2-(2-Dimethylaminoethoxy)-10-methyl-9-phenylacridinium chloride hydrochloride] was tested, and the “curative effect against T. brucei infection” value (Trypanosoma brucei [1]; 25 mg/kg/day×4) was “completely effective”, the “toxicity upon parenteral administration” value (Trypanosoma brucei [1]; mouse, in vivo) was “toxic” and the “curative effect against T. brucei infection, parenteral” value (Trypanosoma brucei [1]; parenteral, 50 mg/kg dose level) was “some curative effect”.

For CN(C)CCOc1ccc2c(c1)c(Cc1ccc(F)cc1)c1ccccc1[n+]2C.Cl.[Cl-] [Example 79, 2-(2-Dimethylaminoethoxy)-10-methyl-9-(4-fluorobenzyl)acridinium chloride hydrochloride], the minimal effective dose (Endameba criceti) was 100 mg/kg and the “curative effect against T. brucei infection” value (Trypanosoma brucei [1]; 200 mg/kg/day×4) was “completely effective”.

Cc1ccc(Cc2c3ccccc3[n+](C)c3ccc(OCCN(C)C)cc23)cc1.Cl.[Cl-] [Example 80, 2-(2-Dimethylaminoethoxy)-10-methyl-9-(4-methylbenzyl)acridinium chloride hydrochloride] was tested, and the MIC (S. aureus) was 15.6 µg/mL, the MIC (S. pyogenes) was 7.8 µg/mL and the “curative effect against T. brucei infection” value (Trypanosoma brucei [1]; 200 mg/kg/day×4) was “ineffective”.

Work on CN1CCN(CCOc2ccc3c(c2)c(=O)c2ccccc2n3C)CC1 [Example 9, 2-[2-(4-Methyl-1-piperazinyl)ethoxy]-10-methyl-9(10H)-acridinone] yielded a minimal effective concentration (herpes simplex virus 1) of 25 µg/mL and a minimal effective concentration [2, 9] of 25 µg/mL.

CCn1c2ccccc2c(=O)c2cc(OCCN3CCCC3)ccc21 [Example 11, 2-[2-(1-Pyrrolidyl)ethoxy]-10-ethyl-9(10H)-acridinone] gave a minimal effective concentration (herpes simplex virus 1) of 25 µg/mL and a minimal effective concentration [2, 9] of 25 µg/mL.

For Cn1c2ccccc2c(=O)c2cc(OCCN3CCCC3)ccc21 [Example 7, 2-[2-(1-Pyrrolidyl)ethoxy]-10-methyl-9(10H)-acridinone], the “effect against herpes virus 2 genital infection in mice” value (herpes simplex type 2; mice, genital infection) was “effective”, the minimal effective concentration (herpes simplex virus 1) was 6 µg/mL and the minimal effective concentration [2, 9] was 6 µg/mL.

For CCN(CC)CCOc1ccc2c(c1)C(O)(c1ccccc1)c1ccccc1N2C (stereo not drawn) [Example 38, 2-(2-Diethylaminoethoxy)-9,10-dihydro-10-methyl-9-phenyl-9-acridinol], the “curative effect against T. brucei infection” value (Trypanosoma brucei [1]; 50 mg/kg/day×4) was “completely effective”.

CN(C)CCOc1ccc2c(c1)c(Cc1ccccc1)c1ccccc1[n+]2C.Cl.[Cl-] [Example 78, 2-(2-Dimethylaminoethoxy)-10-methyl-9-benzylacridinium chloride hydrochloride] was tested, and the minimal effective dose (Endameba criceti) was 100 mg/kg and the “curative effect against T. brucei infection” value (Trypanosoma brucei [1]; 100 mg/kg/day×4) was “completely effective”.

With CN(C)CCOc1ccc2c(c1)C(O)(c1ccccc1)c1ccccc1N2C (stereo not drawn) [Example 37, 2-(2-Dimethylaminoethoxy)-9,10-dihydro-10-methyl-9-phenyl-9-acridinol] the “prophylactic effect against T. brucei infection” value (Trypanosoma brucei [6]) was “completely effective”, the “effect against T. brucei infection, intramuscular” value (Trypanosoma brucei [1]; intramuscularly, single dose of 200 mg/kg three days after infection) was “completely effective” and the “effect against T. brucei infection, intraperitoneal” value (Trypanosoma brucei [1]; intraperitoneally, single dose of 200 mg/kg three days after infection) was “completely effective”. For the same compound, the “curative effect against T. brucei infection” value (Trypanosoma brucei [1]; 25 mg/kg/day×4) was “completely effective” and the “effect against T. brucei infection, subcutaneous” value (Trypanosoma brucei [1]; subcutaneously, single dose of 200 mg/kg three days after infection) was “completely effective”.
